In US20250313533A1, “QUINOLINE CARBOXYLIC ACID ESTER COMPOUND AND PREPARATION METHOD AND USE THEREOF” (priority 2019, published 2025):

How the values were obtained:
[1] = test system: stem rot in sweet potatoes; assay: whole plant or invertebrate; conditions: read-out: efficacy against stem rot in sweet potatoes
[2] = test system: pathogenic bacteria causing black shank in potatoes; assay: In vitro bactericidal activity, black shank in potatoes; type: cell-based; conditions: read-out: inhibitory rate; for inhibition at 1 ppm: dosage 1 ppm; for inhibition at 5 ppm: dosage 5 ppm
[3] = test system: bacterial wilt in tobacco; assay: whole plant or invertebrate; conditions: Nicotiana tabacum, read-out: efficacy against bacterial wilt in tobacco
[4] = test system: pathogenic bacteria causing fire blight in pears; assay: In vitro bactericidal activity, fire blight in pears; type: cell-based, erwinia; conditions: Erwinia, read-out: inhibitory rate; for inhibition at 1 ppm: dosage 1 ppm; for inhibition at 5 ppm: dosage 5 ppm
[5] = test system: pathogenic bacteria causing stem rot in sweet potatoes; assay: In vitro bactericidal activity, stem rot in sweet potatoes; type: cell-based, dikia; conditions: read-out: inhibitory rate; for inhibition at 1 ppm: dosage 1 ppm; for inhibition at 5 ppm: dosage 5 ppm
black shank in potatoes = assay: Living crops in vivo protective activity, potatoes (root irrigation); conditions: Solanum tuberosum, read-out: efficacy against black shank in potatoes; for pest or weed control at 5 ppm: dosage 5 ppm; for pest or weed control at 10 ppm: dosage 10 ppm
Description: Root irrigation was carried out on the potatoes for tests according to the designed concentration of the agents. The dosage for each plant was 200 mL and was kept consistent (also for the control). The black shank bacteria were inoculated on the second day after the application. The results were investigated according to the disease condition.

cucumber seedlings = assay: Safety for plant growth after application; type: in vivo; conditions: dosage 200 ppm
In short: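 Using pot-grown cucumber seedlings indoors, we recorded plant height growth rate together with chlorophyll content and leaf area following compound application.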

[6] = test system: pathogenic bacteria causing bacterial blight in rice; assay: whole plant or invertebrate; type: cell-based, xanthomonas; conditions: read-out: inhibitory rate
[7] = test system: fruit blotch in watermelons; assay: whole plant or invertebrate; conditions: read-out: efficacy against fruit blotch in watermelons
[8] = test system: soft rot in Chinese cabbages; assay: whole plant or invertebrate; conditions: 48 h, read-out: efficacy against soft rot in Chinese cabbages
[9] = test system: pathogenic bacteria causing bacterial wilt in cassava; assay: organism not typed; type: cell-based; conditions: read-out: inhibitory rate
[10] = test system: indoor potted cucumber seedlings; assay: Effect of improving growth and development of crops; type: in vivo; parameters: Rate of growth rate increase (%): concentration or dose not given beside the values; conditions: versus blank control; for Rate of chlorophyll content increase (%) / Rate of leaf area increase (%): 14 days after application; for Rate of growth rate increase (%): plant height 14 days after application; for Rate of leaf area increase (%): second leaf
In short: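 Plant height and second-leaf length/width were measured before application and 14 days after; growth rate and its percent increase, leaf area and leaf-area increase were calculated from these. Chlorophyll was read with a SPAD chlorophyll meter and its increase rate derived.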

[11] = test system: pathogenic bacteria causing black rot in Chinese cabbages; assay: In vitro bactericidal activity, black rot in Chinese cabbages; type: cell-based, xanthomonas; conditions: Xanthomonas, read-out: inhibitory rate; for inhibition at 1 ppm: dosage 1 ppm; for inhibition at 5 ppm: dosage 5 ppm
bacterial blight in rice = assay: whole plant or invertebrate; conditions: Oryza sativa, read-out: efficacy against bacterial blight in rice
[12] = test system: pathogenic bacteria causing fruit blotch in watermelons; assay: In vitro bactericidal activity, fruit blotch in watermelons; type: cell-based, acidovorax; conditions: read-out: inhibitory rate; for inhibition at 1 ppm: dosage 1 ppm; for inhibition at 5 ppm: dosage 5 ppm
[13] = test system: pathogenic bacteria causing bacterial angular leaf spot in cucumbers; assay: In vitro bactericidal activity, bacterial angular leaf spot in cucumbers; type: cell-based, pseudomonas; conditions: read-out: inhibitory rate; for inhibition at 1 ppm: dosage 1 ppm; for inhibition at 5 ppm: dosage 5 ppm
[14] = test system: pathogenic bacteria causing bacterial wilt in tobacco; assay: whole plant or invertebrate; type: cell-based, ralstonia; conditions: read-out: inhibitory rate

Compound | pest or weed control at 5 ppm [1] [%] | pest or weed control at 10 ppm [1] [%] | inhibition at 1 ppm [2] [%] | inhibition at 5 ppm [2] [%] | pest or weed control at 5 ppm [3] [%] | pest or weed control at 10 ppm [3] [%] | inhibition at 1 ppm [4] [%] | inhibition at 5 ppm [4] [%] | inhibition at 1 ppm [5] [%] | inhibition at 5 ppm [5] [%] | pest or weed control at 5 ppm (black shank in potatoes) [%] | pest or weed control at 10 ppm (black shank in potatoes) [%] | safety for plant growth (discoloration, necrosis, wilt, malformation) (cucumber seedlings) | inhibition at 1 ppm [6] [%] | inhibition at 5 ppm [6] [%] | pest or weed control at 5 ppm [7] [%] | pest or weed control at 10 ppm [7] [%] | pest or weed control at 5 ppm [8] [%] | pest or weed control at 10 ppm [8] [%] | inhibition at 1 ppm [9] [%] | also measured
CCN(CC)c1cc2c(cc1F)c(=O)c(C(=O)OCCOC)cn2C1CC1 [Compound 420, 2-methoxyethyl 1-cyclopropyl-7-(diethylamino)-6-fluoro-4-oxo-1,4-dihydroquinoline-3-carboxylate] | ≥ 90 | ≥ 90 | ≥ 90 | ≥ 90 | ≥ 90 | ≥ 90 | ≥ 90 | ≥ 90 | ≥ 90 | ≥ 90 | ≥ 90 | ≥ 90 | safe for plant growth | ≥ 90 | ≥ 90 | ≥ 90 | ≥ 90 | ≥ 90 | ≥ 90 | ≥ 90 | inhibition at 5 ppm [9]: ≥ 90%; Rate of chlorophyll content increase (%) [10]: 9%; Rate of growth rate increase (%) [10]: 9%; Rate of leaf area increase (%) [10]: 12%; inhibition at 1 ppm [11]: ≥ 90%; inhibition at 5 ppm [11]: ≥ 90%; pest or weed control at 5 ppm (bacterial blight in rice): ≥ 90%; pest or weed control at 10 ppm (bacterial blight in rice): ≥ 90%; inhibition at 1 ppm [12]: ≥ 90%; inhibition at 5 ppm [12]: ≥ 90%; inhibition at 1 ppm [13]: ≥ 90%; inhibition at 5 ppm [13]: ≥ 90%; inhibition at 1 ppm [14]: ≥ 90%; inhibition at 5 ppm [14]: ≥ 90%
O=C(OCCO)c1cn(C2CC2)c2cc(N3CCOCC3)c(F)cc2c1=O [Compound 425] | ≥ 90 | ≥ 90 | ≥ 90 | ≥ 90 | ≥ 90 | ≥ 90 | ≥ 90 | ≥ 90 | ≥ 90 | ≥ 90 | ≥ 90 | ≥ 90 | safe for plant growth | ≥ 90 | ≥ 90 | ≥ 90 | ≥ 90 | ≥ 90 | ≥ 90 | ≥ 90 | inhibition at 5 ppm [9]: ≥ 90%; Rate of chlorophyll content increase (%) [10]: 13%; Rate of growth rate increase (%) [10]: 10%; Rate of leaf area increase (%) [10]: 11%; inhibition at 1 ppm [11]: ≥ 90%; inhibition at 5 ppm [11]: ≥ 90%; pest or weed control at 5 ppm (bacterial blight in rice): ≥ 90%; pest or weed control at 10 ppm (bacterial blight in rice): ≥ 90%; inhibition at 1 ppm [12]: ≥ 90%; inhibition at 5 ppm [12]: ≥ 90%; inhibition at 1 ppm [13]: ≥ 90%; inhibition at 5 ppm [13]: ≥ 90%; inhibition at 1 ppm [14]: ≥ 90%; inhibition at 5 ppm [14]: ≥ 90%
COCCOC(=O)c1cn(C2CC2)c2cc(N3CCOCC3)c(F)cc2c1=O [Compound 426, 2-methoxyethyl 1-cyclopropyl-6-fluoro-7-morpholinyl-4-oxo-1,4-dihydroquinoline-3-carboxylate] | ≥ 90 | ≥ 90 | ≥ 90 | ≥ 90 | ≥ 90 | ≥ 90 | ≥ 90 | ≥ 90 | ≥ 90 | ≥ 90 | ≥ 90 | ≥ 90 | safe for plant growth | ≥ 90 | ≥ 90 | ≥ 90 | ≥ 90 | ≥ 90 | ≥ 90 | ≥ 90 | inhibition at 5 ppm [9]: ≥ 90%; Rate of chlorophyll content increase (%) [10]: 10%; Rate of growth rate increase (%) [10]: 9%; Rate of leaf area increase (%) [10]: 11%; inhibition at 1 ppm [11]: ≥ 90%; inhibition at 5 ppm [11]: ≥ 90%; pest or weed control at 5 ppm (bacterial blight in rice): ≥ 90%; pest or weed control at 10 ppm (bacterial blight in rice): ≥ 90%; inhibition at 1 ppm [12]: ≥ 90%; inhibition at 5 ppm [12]: ≥ 90%; inhibition at 1 ppm [13]: ≥ 90%; inhibition at 5 ppm [13]: ≥ 90%; inhibition at 1 ppm [14]: ≥ 90%; inhibition at 5 ppm [14]: ≥ 90%
O=C(OCCO)c1cn(C2CC2)c2cc(N3CCCCC3)c(F)cc2c1=O [Compound 431] | ≥ 90 | ≥ 90 | ≥ 90 | ≥ 90 | ≥ 90 | ≥ 90 | ≥ 90 | ≥ 90 | ≥ 90 | ≥ 90 | ≥ 90 | ≥ 90 | safe for plant growth | ≥ 90 | ≥ 90 | ≥ 90 | ≥ 90 | ≥ 90 | ≥ 90 | ≥ 90 | inhibition at 5 ppm [9]: ≥ 90%; Rate of chlorophyll content increase (%) [10]: 15%; Rate of growth rate increase (%) [10]: 12%; Rate of leaf area increase (%) [10]: 11%; inhibition at 1 ppm [11]: ≥ 90%; inhibition at 5 ppm [11]: ≥ 90%; pest or weed control at 5 ppm (bacterial blight in rice): ≥ 90%; pest or weed control at 10 ppm (bacterial blight in rice): ≥ 90%; inhibition at 1 ppm [12]: ≥ 90%; inhibition at 5 ppm [12]: ≥ 90%; inhibition at 1 ppm [13]: ≥ 90%; inhibition at 5 ppm [13]: ≥ 90%; inhibition at 1 ppm [14]: ≥ 90%; inhibition at 5 ppm [14]: ≥ 90%
COCCOC(=O)c1cn(C2CC2)c2cc(N3CCCCC3)c(F)cc2c1=O [Compound 432] | ≥ 90 | ≥ 90 | ≥ 90 | ≥ 90 | ≥ 90 | ≥ 90 | ≥ 90 | ≥ 90 | ≥ 90 | ≥ 90 | ≥ 90 | ≥ 90 | safe for plant growth | ≥ 90 | ≥ 90 | ≥ 90 | ≥ 90 | ≥ 90 | ≥ 90 | ≥ 90 | inhibition at 5 ppm [9]: ≥ 90%; Rate of chlorophyll content increase (%) [10]: 16%; Rate of growth rate increase (%) [10]: 12%; Rate of leaf area increase (%) [10]: 16%; inhibition at 1 ppm [11]: ≥ 90%; inhibition at 5 ppm [11]: ≥ 90%; pest or weed control at 5 ppm (bacterial blight in rice): ≥ 90%; pest or weed control at 10 ppm (bacterial blight in rice): ≥ 90%; inhibition at 1 ppm [12]: ≥ 90%; inhibition at 5 ppm [12]: ≥ 90%; inhibition at 1 ppm [13]: ≥ 90%; inhibition at 5 ppm [13]: ≥ 90%; inhibition at 1 ppm [14]: ≥ 90%; inhibition at 5 ppm [14]: ≥ 90%
